# From paper PMC6694038, “Pharmacogenomic–pharmacokinetic study of selective estrogen-receptor modulators with intra-patient dose escalation in breast cancer” (Breast Cancer (Tokyo, Japan), 2019)
# Entries after “also recorded” stand apart in the source; their conditions may differ. Like-named read-outs stand apart in the source and are kept apart here.
# Experiments:
# [1] = Source text: Written informed consent was obtained from all the participants included in the study. The patient enrolment period for the screening study started on February 1, 2009 and ended on July 31, 2012.
# (§1) We obtained data on compliance and the grade of hot flush as defined by the Common Terminology Criteria for Adverse Events v3.0.
# The p value was not calculated if there were no events.
# [2] = weighting of plasma concentration; cited from earlier work
# [3] = Total activity: sum of plasma concentrations of each active metabolite adjusted by in vitro activity; assay type: in vivo, breast cancer patients
# Protocol: Blood samples for PK analysis were obtained from patients who had good compliance with taking medications 2–4 h after taking anti-estrogens. […] The interday variability and intraday variability for all compounds are within 15%.
# [4] = Plasma concentrations of TAM, TOR and their metabolites by LC–MS/MS (screening study); conditions: TOR 120 mg for up to 6 months
# [5] = TOR versus TAM, seven randomized-controlled trials; cited from earlier work
# [6] = Hot flush grade (CTCAE v3.0) in the screening study; assay type: in vivo, breast cancer patients; conditions: screening study
# Source text: as §1
compound,measurement,setting,value
"CN(C)CCOc1ccc(/C(=C(/CCCl)c2ccccc2)c2ccccc2)cc1 [TOR, toremifene]","Low WBC ≧ G2, patients",[1]; TOR 120 mg (1),1
same,"T. Bil elevation All grade, % of patients",[1]; TOR 120 mg (1),0 (0) %
same,"T. Bil elevation All grade, patients",[1]; TOR 120 mg (1),0 (0)
same,"T. Bil elevation ≧ G2, % of patients",[1]; TOR 120 mg (1),0 (0) %
same,"T. Bil elevation ≧ G2, patients",[1]; TOR 120 mg (1),0 (0)
same,"TG elevation All grade, % of patients",[1]; TOR 120 mg (1),0 (0) %
same,"TG elevation All grade, patients",[1]; TOR 120 mg (1),0 (0)
same,"TG elevation ≧ G2, % of patients",[1]; TOR 120 mg (1),0 (0) %
same,"TG elevation ≧ G2, patients",[1]; TOR 120 mg (1),0 (0)
same,"Weight, max",[1]; TOR 120 mg (1),73.5 kg
same,"Weight, mean",[1]; TOR 120 mg (1),53.4 kg
same,"Weight, median",[1]; TOR 120 mg (1),51.0 kg
same,"Weight, min",[1]; TOR 120 mg (1),45.0 kg
same,"Cre elevation All grade, % of patients",[1]; TOR 120 mg (2),16.7%
same,"Cre elevation All grade, patients",[1]; TOR 120 mg (2),2
same,"Cre elevation ≧ G2, % of patients",[1]; TOR 120 mg (2),0 (0) %
same,"Cre elevation ≧ G2, patients",[1]; TOR 120 mg (2),0 (0)
same,"GOT elevation All grade, % of patients",[1]; TOR 120 mg (2),8.3%
same,"GOT elevation All grade, patients",[1]; TOR 120 mg (2),1
same,"GOT elevation ≧ G2, % of patients",[1]; TOR 120 mg (2),0 (0) %
same,"GOT elevation ≧ G2, patients",[1]; TOR 120 mg (2),0 (0)
same,"GPT elevation All grade, % of patients",[1]; TOR 120 mg (2),8.3%
same,"GPT elevation All grade, patients",[1]; TOR 120 mg (2),1
same,"GPT elevation ≧ G2, % of patients",[1]; TOR 120 mg (2),0 (0) %
same,"GPT elevation ≧ G2, patients",[1]; TOR 120 mg (2),0 (0)
same,"Hot flush G0, % of patients",[1]; TOR 120 mg (2),75.0%
same,"Hot flush G0, patients",[1]; TOR 120 mg (2),9
same,"Hot flush G1, % of patients",[1]; TOR 120 mg (2),8.3%
same,"Hot flush G1, patients",[1]; TOR 120 mg (2),1
same,"Hot flush G2, % of patients",[1]; TOR 120 mg (2),16.7%
same,"Hot flush G2, patients",[1]; TOR 120 mg (2),2
same,"Hyperglycemia All grade, % of patients",[1]; TOR 120 mg (2),7.1%
same,"Hyperglycemia All grade, patients",[1]; TOR 120 mg (2),1
same,"Hyperglycemia ≧ G2, % of patients",[1]; TOR 120 mg (2),7.1%
same,"Hyperglycemia ≧ G2, patients",[1]; TOR 120 mg (2),1
same,"LDH elevation All grade, % of patients",[1]; TOR 120 mg (2),0 (0) %
same,"LDH elevation All grade, patients",[1]; TOR 120 mg (2),0 (0)
same,"LDH elevation ≧ G2, % of patients",[1]; TOR 120 mg (2),0 (0) %
same,"LDH elevation ≧ G2, patients",[1]; TOR 120 mg (2),0 (0)
same,"LDL elevation All grade, % of patients",[1]; TOR 120 mg (2),10.0%
same,"LDL elevation All grade, patients",[1]; TOR 120 mg (2),1
same,"LDL elevation ≧ G2, % of patients",[1]; TOR 120 mg (2),0 (0) %
same,"LDL elevation ≧ G2, patients",[1]; TOR 120 mg (2),0 (0)
same,"Low PLT All grade, % of patients",[1]; TOR 120 mg (2),0 (0) %
same,"Low PLT All grade, patients",[1]; TOR 120 mg (2),0 (0)
same,"Low PLT ≧ G2, % of patients",[1]; TOR 120 mg (2),0 (0) %
same,"Low PLT ≧ G2, patients",[1]; TOR 120 mg (2),0 (0)
same,"Low WBC All grade, % of patients",[1]; TOR 120 mg (2),8.3%
same,"Low WBC All grade, patients",[1]; TOR 120 mg (2),1
same,"Low WBC ≧ G2, % of patients",[1]; TOR 120 mg (2),8.3%
same,"Low WBC ≧ G2, patients",[1]; TOR 120 mg (2),1
same,"T. Bil elevation All grade, % of patients",[1]; TOR 120 mg (2),0 (0) %
same,"T. Bil elevation All grade, patients",[1]; TOR 120 mg (2),0 (0)
same,"T. Bil elevation ≧ G2, % of patients",[1]; TOR 120 mg (2),0 (0) %
same,"T. Bil elevation ≧ G2, patients",[1]; TOR 120 mg (2),0 (0)
same,"TG elevation All grade, % of patients",[1]; TOR 120 mg (2),0 (0) %
same,"TG elevation All grade, patients",[1]; TOR 120 mg (2),0 (0)
same,"TG elevation ≧ G2, % of patients",[1]; TOR 120 mg (2),0 (0) %
same,"TG elevation ≧ G2, patients",[1]; TOR 120 mg (2),0 (0)
same,"Weight, max",[1]; TOR 120 mg (2),73.0 kg
same,"Weight, mean",[1]; TOR 120 mg (2),53.6 kg
same,"Weight, median",[1]; TOR 120 mg (2),51.1 kg
same,"Weight, min",[1]; TOR 120 mg (2),46.0 kg
same,Body weight during dose escalation,[1]; TOR 40 to 120 mg,remained stable
same,Hot flushes and GOT/GPT elevation with an increase in the dose,[1]; TOR 40 to 120 mg,only a few patients developed hot flushes and GOT/GPT elevation
same,In vitro activity factor in the total activity of TOR (TOR = 1.0),[2],1.0
same,Total activity on continuing the same dose,"[3]; TOR 120 mg for up to 6 months, trend for decrease after 24 weeks",remained constant
same,Change of total activity after increasing the dose,"[3]; TOR from 40 to 120 mg, p < 0.01",increased significantly; also recorded: increased by at least twofold
same,Concentration on continuing the same dose,[4],remained constant
same,Efficacy in patients with advanced breast cancer,[5],equally effective
same,"Hot flush grade 0, % of patients",[6]; TOR 40 mg,57.4%
same,"Hot flush grade 0, patients",[6]; TOR 40 mg,35
same,"Hot flush grade 1, % of patients",[6]; TOR 40 mg,32.8%
same,"Hot flush grade 1, patients",[6]; TOR 40 mg,20
same,"Hot flush grade 2, % of patients",[6]; TOR 40 mg,9.8%
same,"Hot flush grade 2, patients",[6]; TOR 40 mg,6
same,"Hot flush grade 3, % of patients",[6]; TOR 40 mg,0.0%
same,"Hot flush grade 3, patients",[6]; TOR 40 mg,0
same,"Hot flush grade 0, % of patients",[6]; TOR 120 mg,88.9%
same,"Hot flush grade 0, patients",[6]; TOR 120 mg,24
same,"Hot flush grade 1, % of patients",[6]; TOR 120 mg,11.1%
same,"Hot flush grade 1, patients",[6]; TOR 120 mg,3
same,"Hot flush grade 2, % of patients",[6]; TOR 120 mg,0.0%
same,"Hot flush grade 2, patients",[6]; TOR 120 mg,0
same,"Hot flush grade 3, % of patients",[6]; TOR 120 mg,0.0%
same,"Hot flush grade 3, patients",[6]; TOR 120 mg,0
same,Grade and frequency of hot flushes compared with TAM 20 mg or TOR 40 mg,[6]; patients taking TOR 120 mg,lower grade and frequency of hot flushes
